Assay results from US7772198B2, “CFTR channel modulators” (Centre National de la Recherche Scientifique, priority 2003, dated 2010).
Read-outs that look alike come from different tables or passages of the source.

Experiments:
[1] = molecular target: T1, wild-type CFTR receptor (CHO-WT cells) (Homo sapiens, UniProt P13569); experiment: 125I iodide efflux, CHO cells overexpressing wild-type CFTR (CHO-WT); assay type: cell-based; settings: for IC50: 5 μM Fsk; for Effect: + activator, − inhibitor, compound 1 μM, 100% = activation with 1 μM forskolin; for EC50: activators, 1 μM forskolin; for effect on wild-type receptors: summary of Table II
T1 construct: expressed in transfected cells; host or cells: CHO (Chinese Hamster Ovary) cells, stably transfected

[2] = molecular target: T2, G551D-CFTR (CHO-G551D cells) (Homo sapiens, UniProt P13569, G551D); experiment: 125I iodide efflux, CHO cells expressing G551D mutated CFTR (CHO-G551D); assay type: cell-based; settings: for IC50: 10 μM Fsk + 30 μM genistein; for effect on G551D mutated receptors: summary of Table II
T2 construct: expressed in transfected cells; host or cells: CHO (Chinese Hamster Ovary) cells, stably transfected

[3] = pKa evaluation in aqueous solution; assay type: physicochemical
Description: As an example, the pKa of this compound was evaluated at 4. This means that in an aqueous solution with a pH of 7, this compound is mainly in zwitterionic form, as in the case of highly diluted solutions such as those used for biological tests.

[4] = molecular target: wild-type CFTR protein (Calu-3 cells) (Homo sapiens, UniProt P13569); experiment: iodide efflux, Calu-3 human lung cells naturally expressing wild-type CFTR
[5] = molecular target: mutated F508-CFTR (CF15 cells) (Homo sapiens, UniProt P13569, DEL508-508); experiment: iodide efflux, CF15 human nasal epithelial cells expressing mutated F508-CFTR; settings: results not shown
CFTR channel = CFTR channel (Homo sapiens, UniProt P13569); settings: read-out: IC50, concentration to inhibit 50% of the activity of the CFTR channel; cited from earlier work
[6] = tested on: diarrhoea caused by the cholera toxin; settings: mouse, in vivo; cited from earlier work
mice = settings: at 7 days, 10 mg/kg injection; cited from earlier work
[7] = 1 μM compound added to 1 μM Fsk
[8] = 1 μM compound added to 10 μM Fsk + 30 μM genistein
[9] = 1 μM compound added to 5 μM Fsk

T2 sequence (P13569 whole entry G551D): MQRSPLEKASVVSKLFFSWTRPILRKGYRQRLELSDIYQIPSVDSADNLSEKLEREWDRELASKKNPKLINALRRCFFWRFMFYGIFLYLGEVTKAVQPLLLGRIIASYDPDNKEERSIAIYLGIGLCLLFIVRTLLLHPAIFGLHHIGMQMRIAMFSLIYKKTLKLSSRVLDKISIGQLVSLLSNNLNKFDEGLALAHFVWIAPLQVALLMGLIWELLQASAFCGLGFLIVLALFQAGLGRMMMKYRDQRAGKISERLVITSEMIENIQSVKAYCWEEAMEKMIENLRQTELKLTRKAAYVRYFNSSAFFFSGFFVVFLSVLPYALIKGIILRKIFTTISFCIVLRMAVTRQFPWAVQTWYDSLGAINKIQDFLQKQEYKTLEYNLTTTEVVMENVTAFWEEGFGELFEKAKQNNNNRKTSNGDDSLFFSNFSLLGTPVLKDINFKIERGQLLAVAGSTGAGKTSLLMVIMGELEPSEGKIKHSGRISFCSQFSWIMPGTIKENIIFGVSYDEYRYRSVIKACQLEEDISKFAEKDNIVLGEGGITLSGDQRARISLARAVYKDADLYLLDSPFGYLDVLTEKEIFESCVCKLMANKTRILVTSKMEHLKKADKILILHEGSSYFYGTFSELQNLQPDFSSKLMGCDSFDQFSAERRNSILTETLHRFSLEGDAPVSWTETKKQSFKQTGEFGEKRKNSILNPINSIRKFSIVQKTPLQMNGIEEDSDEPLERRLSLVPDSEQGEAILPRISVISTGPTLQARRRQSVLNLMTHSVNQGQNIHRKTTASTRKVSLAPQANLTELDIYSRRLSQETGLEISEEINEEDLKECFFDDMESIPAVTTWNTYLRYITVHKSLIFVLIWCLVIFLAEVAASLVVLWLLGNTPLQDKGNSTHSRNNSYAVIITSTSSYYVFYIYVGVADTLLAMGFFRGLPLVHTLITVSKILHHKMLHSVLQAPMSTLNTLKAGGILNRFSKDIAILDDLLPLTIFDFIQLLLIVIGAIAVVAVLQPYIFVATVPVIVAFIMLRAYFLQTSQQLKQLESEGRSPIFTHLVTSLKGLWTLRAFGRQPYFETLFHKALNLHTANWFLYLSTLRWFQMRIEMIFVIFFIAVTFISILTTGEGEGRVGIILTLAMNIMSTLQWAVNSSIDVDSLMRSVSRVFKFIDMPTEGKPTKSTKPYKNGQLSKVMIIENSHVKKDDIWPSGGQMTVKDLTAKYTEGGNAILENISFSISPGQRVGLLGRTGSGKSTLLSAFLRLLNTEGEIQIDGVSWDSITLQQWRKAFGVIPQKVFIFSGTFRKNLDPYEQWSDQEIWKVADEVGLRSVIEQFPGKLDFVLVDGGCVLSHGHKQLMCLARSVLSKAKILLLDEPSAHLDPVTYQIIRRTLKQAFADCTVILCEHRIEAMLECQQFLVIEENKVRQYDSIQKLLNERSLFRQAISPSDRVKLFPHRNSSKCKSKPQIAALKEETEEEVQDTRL
T1 sequence (P13569 whole entry): as the sequence (P13569 whole entry G551D) above, with D551G counted along it
Chain of wild-type CFTR protein (Calu-3 cells) (P13569 whole entry): as the sequence (P13569 whole entry G551D) above, with D551G counted along it
Chain of CFTR channel (P13569 whole entry): as the sequence (P13569 whole entry G551D) above, with D551G counted along it
Chain of mutated F508-CFTR (CF15 cells) (P13569 with tags, fused parts or gaps DEL508-508): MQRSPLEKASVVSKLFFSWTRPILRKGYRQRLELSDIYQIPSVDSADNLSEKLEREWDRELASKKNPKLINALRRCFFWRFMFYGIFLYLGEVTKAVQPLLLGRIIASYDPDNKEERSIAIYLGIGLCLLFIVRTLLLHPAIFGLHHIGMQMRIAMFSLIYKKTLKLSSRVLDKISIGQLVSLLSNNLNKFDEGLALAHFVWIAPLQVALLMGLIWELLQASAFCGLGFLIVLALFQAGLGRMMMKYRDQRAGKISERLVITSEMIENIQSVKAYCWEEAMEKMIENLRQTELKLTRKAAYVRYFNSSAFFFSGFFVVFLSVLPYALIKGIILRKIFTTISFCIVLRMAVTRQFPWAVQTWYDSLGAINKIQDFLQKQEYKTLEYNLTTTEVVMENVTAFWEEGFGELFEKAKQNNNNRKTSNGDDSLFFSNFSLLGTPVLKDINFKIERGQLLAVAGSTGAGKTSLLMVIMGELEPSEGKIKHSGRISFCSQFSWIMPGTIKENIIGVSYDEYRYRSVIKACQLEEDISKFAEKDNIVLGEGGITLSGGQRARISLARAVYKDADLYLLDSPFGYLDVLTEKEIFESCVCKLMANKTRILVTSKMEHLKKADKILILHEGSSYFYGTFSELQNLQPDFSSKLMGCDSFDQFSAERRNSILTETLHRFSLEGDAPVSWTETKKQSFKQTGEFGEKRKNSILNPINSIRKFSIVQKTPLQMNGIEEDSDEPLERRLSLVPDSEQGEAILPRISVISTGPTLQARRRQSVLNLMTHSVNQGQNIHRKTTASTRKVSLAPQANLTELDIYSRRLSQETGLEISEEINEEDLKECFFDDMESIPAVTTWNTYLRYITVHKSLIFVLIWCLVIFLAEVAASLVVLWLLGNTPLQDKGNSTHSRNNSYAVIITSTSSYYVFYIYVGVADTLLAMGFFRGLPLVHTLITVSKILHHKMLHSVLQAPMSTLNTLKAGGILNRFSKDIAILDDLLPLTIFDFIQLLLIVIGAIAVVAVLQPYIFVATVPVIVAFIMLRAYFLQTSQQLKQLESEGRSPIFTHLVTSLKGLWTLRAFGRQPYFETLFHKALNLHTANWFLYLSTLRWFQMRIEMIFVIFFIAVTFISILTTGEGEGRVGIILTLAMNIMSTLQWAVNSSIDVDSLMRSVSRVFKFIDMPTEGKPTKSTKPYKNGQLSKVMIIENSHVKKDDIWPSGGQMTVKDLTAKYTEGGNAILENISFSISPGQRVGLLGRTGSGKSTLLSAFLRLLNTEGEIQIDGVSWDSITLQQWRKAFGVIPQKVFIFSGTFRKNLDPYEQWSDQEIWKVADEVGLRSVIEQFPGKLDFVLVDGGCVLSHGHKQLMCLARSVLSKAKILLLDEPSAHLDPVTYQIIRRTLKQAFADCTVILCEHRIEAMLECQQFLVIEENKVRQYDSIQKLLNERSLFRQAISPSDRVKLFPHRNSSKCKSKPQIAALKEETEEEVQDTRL

## Cc1nc2cccc[n+]2c(C)c1O [6 (chlorhydrate)]
[1]
  IC50: 0.007 µM

## Cc1nc2cccc[n+]2c(C)c1[O-] [Compound 6, 2-aminopyridine Derivative]
[2]
  IC50: 0.09 µM
[1]
  IC50: 0.005 µM
[3]; read-out: pKa
  pKa: 4
[4]
  IC50: 0.005 µM

## C[C@]1(C(=O)O)N=C2c3nc[nH]c3N=CN2[C@](C)(O)[C@H]1O (single isomer, unassigned) [Compound 5a]
[1]
  IC50: 10 µM

## CCCN1C=CC2=NC(C)(C(=O)O)C(O)C(C)(O)N2C1=O (centres unmarked) [Compound 2, 1-propylcytosine Adducts]
[2]
  IC50: 0.154 µM
[1]
  IC50: 0.002 µM
[4]
  IC50: 0.002 µM

## CCCn1cnc2c1N=CN1C2=NC(C)(C(=O)O)C(O)C1(C)O (mixture of isomers) [Compound 9, 9-propyladenine Adducts]
[2]; [7]
  effect on activation of mutated CFTR (CHO-G551D): no effect
[2]; [8]
  effect on activation of mutated CFTR (CHO-G551D): activation
[2]
  effect on G551D mutated receptors: unable to activate
[5]
  activation of ΔF508 mutated receptor: can activate
[1]; [7]
  effect on activation of wild-type CFTR (CHO-WT): activation
[1]; [8]
  effect on activation of wild-type CFTR (CHO-WT): activation
[1]
  Effect: + (In case of a significant increase, the compound was listed as an activator)
  EC50: 2000 nM
  effect on wild-type receptors: activator effect

## CC1(C(=O)O)N=C2C(O)=CC=CN2C(C)(O)C1O (mixture of isomers) [Compound 3, 2-amino-3-hydroxypyridine Adducts]
[2]
  IC50: 36 µM
[1]
  IC50: 4 µM
[4]
  IC50: 11 µM

## C=CCn1cnc2c1N=CN1C2=NC(C)(C(=O)O)C(O)C1(C)O (mixture of isomers) [Compound 10, 9-allyladenine Adducts]
[1]
  Effect: + (In case of a significant increase, the compound was listed as an activator)
  EC50: 7500 nM

## C[N+](C)(C)CC(=O)O [Betaine, reference compound]
[1]
  IC50: 96 µM

## CC1(C(=O)O)N=C2c3nc[nH]c3N=CN2C(C)(O)C1O (centres unmarked) [Compound 5, Adenine Adducts]
[2]
  IC50: 110 µM
[1]
  IC50: 6 µM
[4]
  IC50: 12 µM

## CC1(C(=O)O)N=C2c3ncn([C@H]4CC(O)[C@@H](CO)O4)c3N=CN2C(C)(O)C1O (stereo in doubt) [Compound 1, 2′-deoxyadenosine Adducts]
[2]; [7]
  effect on activation of mutated CFTR (CHO-G551D): no effect
[2]; [9]
  effect on activation of mutated CFTR (CHO-G551D): no effect
[2]; [8]
  effect on activation of mutated CFTR (CHO-G551D): inhibition
[2]
  IC50: 0.043 µM
  effect on G551D mutated receptors: effectively antagonises the action of the forskolin and genistein activators
[1]; [7]
  effect on activation of wild-type CFTR (CHO-WT): inhibition
[1]; [9]
  effect on activation of wild-type CFTR (CHO-WT): inhibition
[1]; [8]
  effect on activation of wild-type CFTR (CHO-WT): inhibition
[1]
  IC50: 7.1e-05 µM
  effect on wild-type receptors: effectively antagonises the action of the forskolin and genistein activators
[4]
  IC50: 9.3e-05 µM

## CCCn1cnc2c1N=CN1C2=N[C@](C)(C(=O)O)[C@@H](O)[C@@]1(C)O (racemic) [Compound 9a]
[1]
  Effect: + (In case of a significant increase, the compound was listed as an activator)
  EC50: 2000 nM
[4]
  EC50: 2000 nM

## O=C(O)c1nn(Cc2ccc(Cl)cc2Cl)c2ccccc12 [lonidamine]
CFTR channel
  IC50: 58 µM

## CCCN1C=CC2=N[C@](C)(C(=O)O)[C@@H](O)[C@@](C)(O)N2C1=O [Compound 2a]
[1]
  IC50: 0.002 µM

## C[C@]1(C(=O)O)N=C2c3nc[nH]c3N=CN2[C@](C)(O)[C@H]1O (single isomer, unassigned) [Compound 5b]
[1]
  IC50: 3 µM

## O=C(O)c1ccc(/C=C2\SC(=S)N(c3cccc(C(F)(F)F)c3)C2=O)cc1 [CFTRinh-172]
[6]
  reduction of diarrhoea caused by the cholera toxin: more than 90%
mice
  toxicity in mice: absence of toxicity
CFTR channel
  IC50: 0.2 µM

## CCCN1C=CC2=N[C@](C)(C(=O)O)[C@H](O)[C@@](C)(O)N2C1=O [Compound 2b]
[1]
  IC50: 0.0015 µM

## CCCn1cnc2c1N=CN1C2=N[C@](C)(C(=O)O)[C@H](O)[C@@]1(C)O (racemic) [Compound 9b]
[1]
  Effect: + (In case of a significant increase, the compound was listed as an activator)
  EC50: 3000 nM

## C[n+]1cn([C@@H]2O[C@H](CO)[C@@H](O)[C@H]2O)c2nc(N)nc([O-])c21 [Compound 8, 7-methylguanosine]
[2]
  IC50: 15 µM
[1]
  IC50: 3.5 µM
[4]
  IC50: 11 µM

## CCC1(C(=O)O)N=C2C=CC=CN2C(O)(CC)C1O (mixture of isomers) [Compound 11]
[1]
  IC50: 18 µM

## CC1(C(=O)O)N=C2C=CC=CN2C(C)(O)C1O (centres unmarked)
[3]; aqueous solution, aqueous solution at 25° C., read-out: pKa, carboxylic acid function
  pKa: ~2
[3]; aqueous solution, aqueous solution at 25° C., read-out: pKa, imine function
  pKa: ~10
